Measurements reported in patent US11168345B2, “Methods of identifying a polypeptide target for degradation by a modulator of CRBN” (THE BROAD INSTITUTE, INC., priority 2015, dated 2021).

Experiments:
[1] = biological target: T1, Aiolos C2H2 zinc finger 2 (AA146-168) (Homo sapiens, UniProt Q96SW2+Q9UKT9); assay: Aiolos zinc finger 2 (amino acids 146-168) GFP fusion degradation, flow cytometry; assay type: cell-based
T1 construct: attaching zinc finger 2 (amino acids 146-168) to GFP via a flexible linker; expressed in transfected cells; host or cells: HEK293T
T1 sequence (Q9UKT9 146-168 limits assumed): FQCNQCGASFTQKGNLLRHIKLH
T1 sequence (Q96SW2 whole entry, the tested form may be a part): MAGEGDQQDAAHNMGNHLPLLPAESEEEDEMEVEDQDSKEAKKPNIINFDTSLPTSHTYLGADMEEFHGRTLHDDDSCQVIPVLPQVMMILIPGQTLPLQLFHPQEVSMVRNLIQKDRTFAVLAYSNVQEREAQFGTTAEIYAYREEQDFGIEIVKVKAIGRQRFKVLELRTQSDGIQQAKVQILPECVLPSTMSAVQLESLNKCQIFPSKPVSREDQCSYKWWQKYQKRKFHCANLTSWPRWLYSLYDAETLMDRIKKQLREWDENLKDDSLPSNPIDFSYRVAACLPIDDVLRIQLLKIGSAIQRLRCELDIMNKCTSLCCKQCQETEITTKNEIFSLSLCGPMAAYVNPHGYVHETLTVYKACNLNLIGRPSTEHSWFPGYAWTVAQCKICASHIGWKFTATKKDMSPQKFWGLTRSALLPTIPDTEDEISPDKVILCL
T1 sequence (Q16531 whole entry partner, the tested form may be a part): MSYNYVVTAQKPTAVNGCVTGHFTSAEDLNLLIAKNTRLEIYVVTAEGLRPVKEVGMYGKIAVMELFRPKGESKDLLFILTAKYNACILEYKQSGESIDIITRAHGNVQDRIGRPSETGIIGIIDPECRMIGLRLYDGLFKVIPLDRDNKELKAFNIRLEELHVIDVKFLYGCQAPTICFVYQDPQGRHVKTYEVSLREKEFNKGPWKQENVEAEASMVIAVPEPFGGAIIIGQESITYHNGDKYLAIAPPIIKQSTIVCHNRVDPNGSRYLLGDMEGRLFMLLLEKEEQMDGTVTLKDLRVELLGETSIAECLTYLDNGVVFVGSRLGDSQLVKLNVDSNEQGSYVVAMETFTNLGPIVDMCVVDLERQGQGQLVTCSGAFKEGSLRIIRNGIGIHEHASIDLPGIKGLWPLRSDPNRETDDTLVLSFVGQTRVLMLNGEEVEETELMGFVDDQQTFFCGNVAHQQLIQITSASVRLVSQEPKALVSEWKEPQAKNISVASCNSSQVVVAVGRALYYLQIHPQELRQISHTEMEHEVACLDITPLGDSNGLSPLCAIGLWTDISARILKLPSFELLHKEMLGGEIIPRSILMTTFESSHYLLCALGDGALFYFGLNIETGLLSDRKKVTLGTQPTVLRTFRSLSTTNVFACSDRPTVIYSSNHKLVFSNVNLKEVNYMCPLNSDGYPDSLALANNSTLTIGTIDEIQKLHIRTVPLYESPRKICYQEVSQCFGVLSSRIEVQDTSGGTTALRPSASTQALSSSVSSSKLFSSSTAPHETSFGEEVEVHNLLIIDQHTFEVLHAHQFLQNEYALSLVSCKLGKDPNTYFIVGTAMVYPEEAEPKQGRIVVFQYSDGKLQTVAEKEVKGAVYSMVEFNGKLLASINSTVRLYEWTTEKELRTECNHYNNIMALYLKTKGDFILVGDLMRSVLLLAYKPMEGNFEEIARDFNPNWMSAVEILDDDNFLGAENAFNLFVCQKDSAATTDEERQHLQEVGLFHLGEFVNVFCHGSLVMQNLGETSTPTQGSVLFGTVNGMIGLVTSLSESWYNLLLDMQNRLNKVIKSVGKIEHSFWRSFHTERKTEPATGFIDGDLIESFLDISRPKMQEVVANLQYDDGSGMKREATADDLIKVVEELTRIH

[2] = test system: ZFP91; settings: for degradation of ZFP91 in protein reporter vector (normalized EGFP:mCherry ratio): HEK293T cells, lentiviral transduction, 1 μM, cereblon and zinc finger-dependent; for degradation of zinc-finger-containing region of ZFP91 fused to GFP: flow cytometry
Text: (§1) Bars corresponding to treatment groups A-D are consistent amongst all genetic background groups. Bar height is the average of three replicates, error bars represent 95% confidence intervals. […] Light gray (asterisk) amino acids designate positions which are components of the C2H2 zinc finger motif and are found across the C2H2 family of zinc fingers. Medium gray (black bar) amino acids are polymorphic sites in C2H2 zinc fingers.

[3] = test system: RNF166; settings: for degradation of RNF166 in protein reporter vector (normalized EGFP:mCherry ratio): HEK293T cells, lentiviral transduction, 1 μM, cereblon and zinc finger-dependent; for degradation of zinc-finger-containing region of RNF166 fused to GFP: flow cytometry
Text: as §1

[4] = test system: ZNF692; settings: for degradation of ZNF692 in protein reporter vector (normalized EGFP:mCherry ratio): HEK293T cells, lentiviral transduction, 1 μM, cereblon and zinc finger-dependent; for degradation of zinc-finger-containing region of ZNF692 fused to GFP: flow cytometry
Text: as §1

[5] = biological target: T2, ZNF692 (Homo sapiens, UniProt Q96SW2+Q9BU19); settings: MM1S (multiple myeloma) and KG1 (Acute Myeloid Leukemia) cell lines; datasets of Kronke et al. 2014, 2015; cited from earlier work
T2 construct: endogenous in cells; host or cells: MM1S, KG1
T2 sequence (Q9BU19 whole entry): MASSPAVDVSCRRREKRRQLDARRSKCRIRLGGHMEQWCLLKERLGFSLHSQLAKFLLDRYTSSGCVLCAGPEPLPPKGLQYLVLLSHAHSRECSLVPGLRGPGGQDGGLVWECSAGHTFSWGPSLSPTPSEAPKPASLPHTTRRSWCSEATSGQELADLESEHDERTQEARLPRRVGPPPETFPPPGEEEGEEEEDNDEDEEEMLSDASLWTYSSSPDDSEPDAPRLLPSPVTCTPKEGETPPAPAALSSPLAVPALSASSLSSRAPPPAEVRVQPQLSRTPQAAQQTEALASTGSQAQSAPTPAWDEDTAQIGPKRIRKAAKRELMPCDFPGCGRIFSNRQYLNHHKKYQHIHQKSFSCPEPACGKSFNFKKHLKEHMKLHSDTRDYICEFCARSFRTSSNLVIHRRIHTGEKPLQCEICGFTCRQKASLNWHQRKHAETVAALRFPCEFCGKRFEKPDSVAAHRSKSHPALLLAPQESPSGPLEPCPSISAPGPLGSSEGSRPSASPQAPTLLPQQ
T2 sequence (Q96SW2 whole entry): as the sequence (Q96SW2 whole entry, the tested form may be a part) above
T2 sequence (Q16531 whole entry partner): as the sequence (Q16531 whole entry partner, the tested form may be a part) above

[6] = biological target: T3, ZFP91 (Homo sapiens, UniProt Q96JP5+Q96SW2); settings: MM1S (multiple myeloma) and KG1 (Acute Myeloid Leukemia) cell lines; datasets of Kronke et al. 2014, 2015; cited from earlier work
T3 construct: endogenous in cells; host or cells: MM1S, KG1
T3 sequence (Q96JP5 2-570 limits assumed): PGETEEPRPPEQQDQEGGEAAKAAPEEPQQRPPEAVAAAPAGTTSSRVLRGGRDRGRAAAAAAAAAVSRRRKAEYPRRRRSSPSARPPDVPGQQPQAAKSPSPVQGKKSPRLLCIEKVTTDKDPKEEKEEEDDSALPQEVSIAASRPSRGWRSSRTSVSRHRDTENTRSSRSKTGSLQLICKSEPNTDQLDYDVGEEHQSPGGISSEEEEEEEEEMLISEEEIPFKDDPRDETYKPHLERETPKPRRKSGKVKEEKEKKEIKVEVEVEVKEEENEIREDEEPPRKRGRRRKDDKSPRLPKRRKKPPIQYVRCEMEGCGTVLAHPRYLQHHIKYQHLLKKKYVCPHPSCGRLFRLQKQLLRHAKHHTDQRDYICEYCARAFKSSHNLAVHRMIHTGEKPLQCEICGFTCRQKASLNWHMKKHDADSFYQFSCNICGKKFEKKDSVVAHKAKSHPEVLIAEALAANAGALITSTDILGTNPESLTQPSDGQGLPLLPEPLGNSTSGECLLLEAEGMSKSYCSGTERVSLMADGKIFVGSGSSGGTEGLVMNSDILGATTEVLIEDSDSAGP
T3 sequence (Q96SW2 whole entry): as the sequence (Q96SW2 whole entry, the tested form may be a part) above
T3 sequence (Q16531 whole entry partner): as the sequence (Q16531 whole entry partner, the tested form may be a part) above

[7] = biological target: T4, RNF166 (Homo sapiens, UniProt Q96A37+Q96SW2); settings: MM1S (multiple myeloma) and KG1 (Acute Myeloid Leukemia) cell lines; datasets of Kronke et al. 2014, 2015; cited from earlier work
T4 construct: endogenous in cells; host or cells: MM1S, KG1
T4 sequence (Q96A37 whole entry): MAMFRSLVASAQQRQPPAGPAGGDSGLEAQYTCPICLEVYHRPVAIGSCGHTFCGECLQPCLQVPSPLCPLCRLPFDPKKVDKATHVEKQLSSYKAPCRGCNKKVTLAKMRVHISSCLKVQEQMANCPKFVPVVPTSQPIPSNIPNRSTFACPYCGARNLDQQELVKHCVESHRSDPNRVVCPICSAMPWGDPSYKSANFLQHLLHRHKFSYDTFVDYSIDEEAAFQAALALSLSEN
T4 sequence (Q96SW2 whole entry): as the sequence (Q96SW2 whole entry, the tested form may be a part) above
T4 sequence (Q16531 whole entry partner): as the sequence (Q16531 whole entry partner, the tested form may be a part) above

| SMILES | second C2H2 zinc finger in Aiolos (amino acids 146-169) inducing targeting by the drug [1] | degradation of ZFP91 in protein reporter vector (normalized EGFP:mCherry ratio) [2] | degradation of zinc-finger-containing region of ZFP91 fused to GFP [2] | degradation of RNF166 in protein reporter vector (normalized EGFP:mCherry ratio) [3] | degradation of zinc-finger-containing region of RNF166 fused to GFP [3] | degradation of ZNF692 in protein reporter vector (normalized EGFP:mCherry ratio) [4] | degradation of zinc-finger-containing region of ZNF692 fused to GFP [4] | ZNF692 protein abundance in the presence of drug [5] | ZFP91 protein abundance in the presence of drug [6] | RNF166 protein abundance in the presence of drug [7] |
| --- | --- | --- | --- | --- | --- | --- | --- | --- | --- | --- |
| Nc1cccc2c1C(=O)N(C1CCC(=O)NC1=O)C2=O (centres unmarked) [pomalidomide] | both necessary and sufficient to induce targeting | degraded | degraded with varying efficiencies | degraded | degraded with varying efficiencies | degraded | degraded with varying efficiencies | – | – | – |
| O=C1CCC(N2C(=O)c3ccccc3C2=O)C(=O)N1 (centres unmarked) [thalidomide] | both necessary and sufficient to induce targeting | degraded | degraded with varying efficiencies | degraded | degraded with varying efficiencies | degraded | degraded with varying efficiencies | significant decrease in abundance | significant decrease in abundance | significant decrease in abundance |
